Columns and labels:
HIV protease [1] = target: T1, HIV protease (Human immunodeficiency virus type 1 group M subtype B, UniProt P12497); test: Assay for Inhibition of Microbial Expressed HIV Protease (peptide substrate cleavage, HPLC); format: biochemical; details: for IC50 / % inhibition: pH 5.5, 30° C., 1 hour; for % inhibition: concentration not given
T1 construct: made in house; host or cells: Escherichia coli
Experimental: Assay for Inhibition of Microbial Expressed HIV Protease
Inhibition studies of the reaction of the protease expressed in Eschericia coli with a peptide substrate [Val-Ser-Gln-Asn-(betanapthyl)Ala-Pro-Ile-Val, 0.5 mg/mL at the time the reaction is initiated] were in 50 mM Na acetate, pH 5.5, at 30° C. for 1 hour. Various concentrations of inhibitor in 1.0 μl DMSO were added to 25 μl of the peptide solution in water. The reaction is initiated by the addition of 15 μl of 0.33 nM protease (0.11 ng) in a solution of 0.133M Na acetate pH 5.5 and 0.1% bovine serum albumin. The reaction was quenched with 160 μl of 5% phosphoric acid. Products of the reaction were separated by HPLC (VYDAC wide pore 5 cm C-18 reverse phase, acetonitrile gradient, 0.1% phosphoric acid). The extent of inhibition of the reaction was determined from the peak heights of the products. […] [drawing 61] 5(RS)-((4')-2"-furanyl)methylpheny-9(RS)-hydroxy-1(RS)-hydroxy-methyl-3-(2' -methylpropyl-3-azabicyclo[3.3.1]nonan-7-one (Compound 10, Table 1) [drawing 62]

HIV protease [2] = target: T1, HIV protease; test: as above; format: biochemical; details: concentration printed as (8.8) μM (column head 'Enzyme concentration (μM)'); pH 5.5, 30° C., 1 hour

SMILES	IC50 (HIV protease [1]) [µM]	inhibition at 100 µM (HIV protease [1]; pH 5.5) [%]	further results
O=C1CC2(CO)CN(CC3CC3)CC(Cc3ccccc3)(C1)C2O (stereo not shown) [Compound 2]	–	–	inhibition at 250 µM (HIV protease [1]; pH 5.5): 56%
CC(C)(C)CN1CC2(CO)CC(=O)CC(Cc3ccccc3)(C1)C2O (stereo not shown) [Compound 3]	–	–	inhibition at 250 µM (HIV protease [1]; pH 5.5): 69%
O=C1CC2(CO)CN(Cc3ccccc3)CC(Cc3ccccc3)(C1)C2O (stereo not shown) [Compound 4]	–	–	inhibition at 250 µM (HIV protease [1]; pH 5.5): 82%
CC(C)CN1CC2(CO)CC(=O)CC(Cc3ccccc3)(C1)C2O (stereo not shown) [Compound 5]	–	–	inhibition at 250 µM (HIV protease [1]; pH 5.5): 63%
CC(C)CN1CC2(CO)CC(=O)CC(Cc3ccc(Br)cc3)(C1)C2O (stereo not shown) [Compound 6]	244	–	inhibition at 250 µM (HIV protease [1]; pH 5.5): 71%
COc1ccccc1-c1ccc(CC23CC(=O)CC(CO)(CN(CC(C)C)C2)C3O)cc1 (stereo not shown) [Compound 7]	–	56	–
CC(C)CCN1CC2(CO)CC(=O)CC(Cc3ccccc3)(C1)C2O (stereo not shown) [Compound 8]	–	–	% inhibition (HIV protease [1]): 68%
O=C1CC2(CO)CN(CC3CCCC3)CC(Cc3ccccc3)(C1)C2O (stereo not shown) [Compound 9]	89	–	–
CC(C)CN1CC2(CO)CC(=O)CC(Cc3ccc(-c4ccco4)cc3)(C1)C2O (stereo not shown) [Compound 10]	–	62	–
CC(C)(C)N1CC2(CO)CC(=O)CC(Cc3ccccc3Br)(C1)C2O (stereo not shown) [Compound 11]	30	76	–
CC(C)(C)N1CC2(CO)CC(=O)CC(Cc3ccc4ccccc4c3)(C1)C2O (stereo not shown) [Compound 12]	–	43	–
CC(C)C[C@@H](CO)CN1CC2(CO)CC(=O)CC(Cc3ccccc3)(C1)C2O (stereo partly shown) [Compound 13]	44	–	% inhibition (HIV protease [1]): 75%
CC(C)C[C@H](CO)CN1CC2(CO)CC(=O)CC(Cc3ccccc3)(C1)C2O (stereo partly shown) [Compound 14]	–	–	% inhibition (HIV protease [1]): 62%
CCCCC(O)C12CC(=O)CC(Cc3ccccc3)(CN(CC(C)C)C1)C2O (stereo not shown) [Compound 15]	14	73	–
CC(C)CN1CC2(Cc3ccccc3)CC(=O)CC(C(O)Cc3ccccc3)(C1)C2O (stereo not drawn) [Compound 16, 5(RS)-methylphenyl-9(RS)-hydroxy-1(RS)-((1'-hydroxy)-2'-phenyl)-ethyl-3-(2"-methyl)propyl-3-azabicyclo[3.3.1] nonan-7-one]	50	–	% inhibition (HIV protease [2]): 82%
O=C1CC2(Cc3ccccc3)CN(Cc3ccccc3)CC(C(O)C#Cc3ccccc3)(C1)C2O (stereo not shown) [Compound 17]	–	–	inhibition at 50 µM (HIV protease [1]; pH 5.5): 52%
O=C1CC2(Cc3ccccc3)CN(Cc3ccccc3)CC(C(O)Cc3ccccc3)(C1)C2O (stereo not drawn) [Compound 18, 5(RS)-methylpheny-9(RS)-hydroxy-1(RS)-((1'-hydroxy)-2'-phenyl)-ethyl-3-benzyl-3-azabicyclo[3.3.1]nonan-7-one]	–	–	inhibition at 50 µM (HIV protease [1]; pH 5.5): 63%
CC(C)(C)N1CC2(Cc3ccccc3)CC(=O)CC(C(O)Cc3ccccc3)(C1)C2O (stereo not shown) [Compound 19]	–	–	inhibition at 50 µM (HIV protease [1]; pH 5.5): 44%
CC(C)CN1CC2(Cc3ccccc3)CC(=O)CC(C(O)Cc3ccccc3N)(C1)C2O (stereo not shown) [Compound 20]	1.6	93	–
O=C1CC2(Cc3ccccc3)CN(CC3CCCC3)CC(C(O)Cc3ccccc3)(C1)C2O (stereo not shown) [Compound 21]	1.8	–	inhibition at 25 µM (HIV protease [1]; pH 5.5): 80%
O=C1CC2(Cc3ccccc3)CN(CC3CCCO3)CC(C(O)Cc3ccccc3)(C1)C2O (stereo not shown) [Compound 22]	10.4	84	–
O=C1CC2(Cc3ccccc3)CN(Cc3ccccc3)CC(C(O)CN3CCCCS3(=O)=O)(C1)C2O (stereo not shown) [Compound 23]	29	69	–

From patent US5846978A, “HIV protease inhibitors useful for the treatment of AIDS” (Merck & Co., Inc., priority 1997, dated 1998)
